Counter-ions that a name gives are not always drawn.
Legend:
CLL cells [1] = experiment: LC3-Lamp2 co-localization (autophagosome-lysosome fusion) by confocal microscopy in CLL cells; format: cell-based, human; conditions: CLL cells, 4 hours, flavopiridol 2 μM
Method: After 4 hours exposure to agents, cells were washed in phosphate-buffered saline (PBS) and made adherent on a microscope slide by centrifugation in a Cytospin3 (Shandon) centrifuge. Immediately after cytospin, cells were fixed in cold acetone. […] Nuclei were stained blue with DAPI (Vector Laboratories, Burlingame, Calif.). Images were taken using a 60× objective and 4× digital zoom with Olympus Fluoview 1000 Laser Scanning Confocal microscope at the Ohio State University Campus Microscopy and Imaging Facility. ATF6 antibody was purchased from LifeSpan Biosciences (Seattle, Wash.) and Nrf2 was from Santa Cruz Biotechnology (Santa Cruz, Calif.). Nuclei were evaluated for ATF6 and Nrf2 using confocal microscopy to collect Z stacks, approximately 45 slices per cell, 0.2 μm each.
LC3 intensity and number of dots per cell were both assessed in the fluorescence images. Integrated intensity was measured using Metamorph v.7.0. To calculate the number of “dots” (local extreme point in pixel-intensity profile at which a number of high-intensity pixels form a cluster), a Gaussian filter was first applied to reduce noise. Cells were enumerated electronically by an improved watershed-based algorithm. To quantify co-localization, two binary nuclei images—red (R) and green (G)—are obtained. […]

CLL cells [2] = experiment: LC3 fluorescence in CLL cells from patients treated with flavopiridol in clinic; format: in vivo, human
Method: In this trial, CLL cells were collected pre- and post-therapy 4.5 hours, day 1 (n=16). By confocal fluorescence microscopy, both increased autophagosome formation (P=0.0011) and fusion with lysosomes is observed (FIG. 3F). […] The level of autophagy, as assessed by LC3 fluorescence intensity, was overall greater in non-responders versus responders in both pre- and post-treatment samples (P=0.018); however, the increase in intensity at 4.5 hours post- vs. pre-treatment was only slightly higher for non-responders compared to responders (fold change of 2.51 vs. 1.82, P=0.3445). […] Collectively, these studies provide evidence that our in vitro observations are relevant to the clinical setting.
(§1) After 4 hours exposure to agents, cells were washed in phosphate-buffered saline (PBS) and made adherent on a microscope slide by centrifugation in a Cytospin3 (Shandon) centrifuge. Immediately after cytospin, cells were fixed in cold acetone. Next, the cells were incubated in blocking solution (2% bovine serum albumin in PBS) and stained for LC3 (Cell Signaling, Boston, Mass.)) and Lamp2 (Santa Cruz Biotechnology, Santa Cruz, Calif.) by incubating separately with the respective primary antibodies over night, in 4° C., followed by incubation with fluorescent secondary antibodies (Invitrogen, Carlsbad, Calif.): Alexa fluor 594 (red) anti-rabbit for LC3 and Alexa fluor 488 (green) anti-mouse for Lamp2. Nuclei were stained blue with DAPI (Vector Laboratories, Burlingame, Calif.). Images were taken using a 60× objective and 4× digital zoom with Olympus Fluoview 1000 Laser Scanning Confocal microscope at the Ohio State University Campus Microscopy and Imaging Facility. ATF6 antibody was purchased from LifeSpan Biosciences (Seattle, Wash.) and Nrf2 was from Santa Cruz Biotechnology (Santa Cruz, Calif.). Nuclei were evaluated for ATF6 and Nrf2 using confocal microscopy to collect Z stacks, approximately 45 slices per cell, 0.2 μm each.
LC3 intensity and number of dots per cell were both assessed in the fluorescence images. Integrated intensity was measured using Metamorph v.7.0. […] To quantify co-localization, two binary nuclei images—red (R) and green (G)—are obtained. The correlation value is calculated as the number of white pixels of (R&G) divided by the number of pixels of (RIG), where (R&G) is the intersection of R and G, and (RIG) is the union of R and G. The program used for cell counts and measurement of correlation index is based on MatLab software (Natick, Mass.) and it was developed by members of Department of Biomedical Informatics, The Ohio State University.
For the quantification of LC3 fluorescence in serial samples (in vivo data), CLL patients were classified as either “no response” (N=10) or “partial response” (N=6). […]

IRE1 = experiment: XBP1 splicing (IRE1 activity) PCR in CLL cells; format: cell-based, human
Method: (§2) RNA was extracted using TRIzol reagent (Invitrogen, Carlsbad, Calif.) and purified using QIAGEN RNeasy columns (Qiagen, Valencia, Calif.). cDNA was prepared with SuperScript First-Strand Synthesis System (Invitrogen). Real-time PCR was performed using primers purchased from Applied Biosystems. Detection was performed using an ABI Prism 7700 sequence detection system (Applied Biosystems). Average relative expression (treatment compared with vehicle) was normalized to the internal control gene CD52. Primers to detect spliced XBP1 were designed using Primer 3 software and purchased from IDT. Samples were analyzed on 10% acrylamide gels.

[3] = test system: cell lines 293T, RAW and 697, normal B cells; experiment: XBP1 splicing PCR in normal B cells and cell lines; format: cell-based
Method: as §2

ATF6 = ATF6 nuclear translocation by confocal fluorescence microscopy in CLL cells; format: cell-based, human; conditions: CLL patient cells, flavopiridol 2 μM or thapsigargin 1 μM, 4 hours
Method: as §1

697 cells = experiment: ChIP assay of ATF6 at GRP78 promoter in 697 cells; format: cell-based; conditions: relative to IgG control
Method: (§3) In brief, cells were treated with 37% formaldehyde to ensure crosslinking of proteins to DNA. Cells were lysed and sonicated to shear the chromatin to fragments of approximately 500 bp. Sheared chromatin was incubated with ATF6 antibody (LifeSpan Biosciences, Seattle, Wash.), followed by precipitation, washing and reversing of the crosslinks Purified DNA was then analyzed by real-time quantitative PCR using primers to the GRP78 promoter region. Primers were designed using Primer 3 software and purchased from IDT (Coralville, Iowa).

[4] = test system: ATF6 at GRP78 promoter region; experiment: ChIP assay of ATF6 at GRP78 promoter in cells from CLL patients undergoing flavopiridol treatment; format: in vivo, human; conditions: CLL patient samples before and 4.5 hour after flavopiridol infusion
Method: as §3

JNK1 and p38MAPK = experiment: Immunoblot of phosphorylated JNK1 and p38MAPK in samples from CLL patients treated with flavopiridol; format: in vivo, human; conditions: samples 4.5 hours following flavopiridol infusion
Method: Proteins extracted from whole cell lysates (50 μg/lane) were separated on polyacrylamide gels and transferred on nitrocellulose membrane. Antibodies used for immunoblots included LC3, IRE1α, TRAF2, PI3K III, ATG4C, ATG5-12, UVRAG, Beclin-1 (Cell Signaling, Boston, Mass.), GAPDH, Nrf2, ASK1, ULK1 (Santa Cruz Biotechnology), and Bif-1, ATG14-Barkor (Sigma-Aldrich, St Louis, Mo.). Species-appropriate secondary antibodies were obtained from BioRad Laboratories (Hercules, Calif.). Following antibody incubations, proteins were detected using a chemiluminescent substrate (BioRad Laboratories). For co-immunoprecipitations, TrueBlot beads (eBiosciences, San Diego, Calif.) and One-hour IP Western kit (GenScript, Piscataway, N.J.) were used according to manufacturer protocols. Quantification was done using FluorChem Q (Alpha Innotech, San Leandro Calif.).

CLL cells [5] = experiment: Intracellular calcium in CLL cells; format: cell-based, human; conditions: CLL cells treated with flavopiridol

CN1CC[C@H](c2c(O)cc(O)c3c(=O)cc(-c4ccccc4Cl)oc23)[C@H](O)C1 [flavopiridol, (cis-5,7-dihydroxy-2-(2-chlorophenyl)-8-[4-(3-hydroxy-1-methyl)-piperidin-yl]-1-benzopyran-4-one)hydrochloride]
autophagy flux by LC3-Lamp2 co-localization, agent alone (CLL cells [1]): unrestricted autophagy flux was demonstrated by co-localization of LC3 and Lamp2 | average increase in LC3 integrated intensity at 4.5 hours after flavopiridol infusion versus pretreatment (CLL cells [2]; CLL patients n=16, all): 2.16 fold | fold change of LC3 intensity 4.5 hours vs pre-treatment, non-responders (CLL cells [2]; non-responders (N=10)): 2.51 fold | overall LC3 intensity, non-responders compared to responders (CLL cells [2]; pre- and post-treatment samples, 95% CI 1.07, 1.95): 1.44 times | fold change of LC3 intensity 4.5 hours vs pre-treatment, responders (CLL cells [2]; responders (N=6)): 1.82 fold | IRE1 activity (splicing of IRE1 substrate XBP1) (IRE1; CLL cells): no evidence of IRE1 activity | CLL samples with deficiency in XBP1 splicing (IRE1; CLL samples tested): 8 of 10 | XBP1 splicing [3]: XBP1 splicing is detected | ATF6 nuclear translocation (ATF6): increased nuclear translocation | binding of GRP78 promoter region by ATF6 (697 cells): enhanced binding of the GRP78 promoter region by ATF6 | binding of GRP78 promoter region by ATF6 [4]: results were similar | CLL patients with JNK1 and p38MAPK phosphorylation (JNK1 and p38MAPK): five of ten | intracellular calcium (CLL cells [5]): increase of intracellular calcium
